Data published in patent US10955421B2, “Detection of membrane proteins” (Oxford University Innovation Limited, priority 2017, dated 2021).

Tests used:
[1] = system: human P2Y1 purinergic receptor (P2Y1R); experiment: Native mass spectrometry of P2Y1R ligand binding in Fos-Choline-16
Description: P2Y1R and P2Y1R-MRS2500 complex were prepared as described in Zhang et al., Nature, 2015, 520, 317.
(§1) Purified GPCRs were buffer exchanged into 50-200 mM ammonium acetate containing Fos-Choline detergents at 2 times critical micelle concentration (CMC) by using Bio-Spin size exclusion spin column (Bio-rad) prior to mass spectrometer analysis. Detergent exchange could be also performed by size exclusion chromatography equipped with FPLC system. Protein samples were fractionized by the size exclusion columns equilibrated with 50-200 mM ammonium acetate containing Fos-choline detergents at 2 times CMC, and the protein fractions were collected and concentrated by centrifugation-based protein concentrators Vivaspin.
The measurement of GPCRs was performed on a modified Synapt G1 (Waters) or a modified Q-Exactive (Thermo) mass spectrometer. The data in Examples 2 and 4 were obtained using a Q-Exactive mass spectrometer, whereas the data in Example 3 were obtained using a Synapt G1 mass spectrometer.
The Q-Exactive mass spectrometer was set up according to Gault et al. (Nat. Methods 13, 333-336, 2016). Briefly, a gentle voltage gradient was applied (injection flatapole, inter flatapole, bent flatapole, transfer multipole: 7.9, 6.94, 5.9, 4 V respectively). The acceleration voltage applied in HCD cell was optimized for GPCRs (60-150 V) to remove the detergent micelles from protein ions. Spectra were acquired with ten microscans and the noise level parameter of 3 was applied. Backing pressure was maintained at 1.05-1.3×10^−9 mBar to allow better transmission of GPCR ions.
High-resolution MS was used to probe the drug/ligand interactions of human P2Y1R purified from insect cells. By controlled application of collisional activation, intact P2Y1R was liberated from its detergent micelle, preserving the non-covalent interactions formed in solution. The phosphate-containing detergent of Example 1 (Fos-16) was used in these experiments.

NTR1 [2] = biological target: T1, NTR1 (Rattus norvegicus, UniProt P20789); experiment: Detergent screening by neurotensin-binding assay (BODIPY-NT8-13); conditions: BODIPY-NT8-13 bound to NTR1 in detergent extract, room temperature, 1 hr (FIG. 1C)
Description: (§2) The gene fragment of rat NTR1 (wild-type, 1-424) with exogenous c-terminal Flag- and His-tag was constructed into modified pHLsec vector for transient protein overexpression. Plasmids were transfected into HEK293T cells via a liposome-based method with Lipofectamine 2000 transfection reagent and the cells were harvested 24 hrs after transfection for further experiments.
Protein extract from HEK293T cells with NTR1 overexpression was incubated with BODIPY-labelled neurotensin 8-13 (BODIPY-NT8-13) at room temperature for 1 hr. The unbound BODIPY-NT8-13 was removed by Bio-Spin size exclusion spin column (Bio-rad) and the fluorescent signal of BODIPY-NT8-13 bound to receptor was detected by fluorescence microplate reader.
Various detergents were assessed for their ability to preserve the conformation and activity of NTR1. The detergents assessed were: (1) n-dodecyl-β-D-maltoside (DDM); (2) n-undecyl-β-D-maltoside (UDM); (3) n-nonyl-β-D-glucopyranoside (NG); (4) n-octyl-β-D-glucopyranoside (OG); (5) octyl glucose neopentyl glycol (OGNG); (6) n-octyl-β-D-thioglucopyranoside (OTG); (7) tetraethylene glycol monooctyl ether (C8E4); (8) hexaethylene glycol monodecyl ether (C10E6); (9) polyethylene glycol tert-octylphenyl ether (Triton X-100); (10) lauryldimethylamine-N-oxide (LDAO); and (11) hexadecylphosphocholine (Fos-Choline-16).

NTR1 [3] = biological target: T1, NTR1; experiment: Detergent screening by western blotting (receptor aggregation); conditions: NTR1 solubilised from HEK293T cells in 1% detergent; compared with the other detergents tested (FIGS. 1A and B)
Description: as §2
HEK293T cells with NTR1 overexpression were lysed in lysis buffer (100 mM sodium phosphate, pH 7.2, 150 mM NaCl, 10% glycerol, 1× EDTA-free protease inhibitor cocktail from Roche) containing 1% various detergents for screening. Cell lysate was harvested after pelleting down the debris by centrifugation, and protein concentration was measured by Pierce 660 nm protein assay reagent (Pierce). Equal amounts of protein extract in different detergents were applied for western blotting to detect NTR1 by using an anti-His tag antibody. Semi-quantification was performed by Gel-pro software to quantify the protein amount and relative ratio of protein aggregation.
Various detergents were assessed for their ability to preserve the conformation and activity of NTR1. […]

NTR1 [4] = biological target: T1, NTR1; experiment: Native mass spectrometry of PIP2 binding to NTR1 in Fos-Choline-16; conditions: after incubation of PIP2 and NTR1 in Fos-Choline-16 (FIG. 6A)
Description: as §1
PIP2 powder (Avanti) was dissolved into solvent containing chloroform, methanol and H2O with volume ratio of 20:9:1. The aliquoted PIP2 solution was dried out by gas-assisted evaporation and re-suspended into 50-200 mM ammonium acetate containing 0.00106% Fos-Choline-16, followed by sonication in water bath for 30 mins.
The measurement of GPCRs was performed on a modified Synapt G1 (Waters) or a modified Q-Exactive (Thermo) mass spectrometer. The data in Examples 2 and 4 were obtained using a Q-Exactive mass spectrometer, whereas the data in Example 3 were obtained using a Synapt G1 mass spectrometer. […]

[5] = 1:0.5 molar ratio of protein to ATP (FIG. 3B)
[6] = endogenous nucleotide, purified P2Y1R, UniDec deconvolution (FIG. 2A)

T1 sequence (P20789 whole entry, the tested form may be a part): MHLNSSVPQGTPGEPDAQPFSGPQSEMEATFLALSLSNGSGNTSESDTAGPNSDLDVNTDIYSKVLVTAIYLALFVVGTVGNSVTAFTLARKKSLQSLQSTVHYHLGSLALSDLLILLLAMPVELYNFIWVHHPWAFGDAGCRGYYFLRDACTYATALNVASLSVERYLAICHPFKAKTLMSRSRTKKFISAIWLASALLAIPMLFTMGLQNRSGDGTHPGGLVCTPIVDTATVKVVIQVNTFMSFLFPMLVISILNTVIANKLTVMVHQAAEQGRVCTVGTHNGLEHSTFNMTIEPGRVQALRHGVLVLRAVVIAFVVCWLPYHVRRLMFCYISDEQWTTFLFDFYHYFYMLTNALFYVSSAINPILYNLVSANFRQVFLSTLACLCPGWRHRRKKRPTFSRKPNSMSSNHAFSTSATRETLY

In the case of `Nc1ncnc2c1ncn2[C@@H]1O[C@H](COP(=O)(O)OP(=O)(O)OP(=O)(O)O)[C@@H](O)[C@H]1O` [ATP, adenosine 5′-triphosphate], the “ADP-bound receptor converted into the ATP bound state” value [1, 5] is reported as about 30%, the “apo receptor converted into the ATP bound state” value [1, 5] is reported as “around 80%” and the “displacement of MRS2500 from the P2Y1R-MRS2500 complex” value ([1]; 1:2 molar P2Y1R:ATP, 30 min incubation at 37° C. (FIG. 4)) is reported as “complete displacement of MRS2500”. For the same compound, the “further decrease of ADP binding” value ([1]; 2 molar excess of ATP (FIG. 3C)) was 40%, the “ATP-binding ratio of phosphorylated P2Y1R” value [1, 6] was 39.6% and the “ATP-binding ratio of receptor without phosphorylation” value [1, 6] was 41.5%.
For `CCCCCCCCCCCCCCCCOP(=O)([O-])OCC[N+](C)(C)C` [Fos-Choline-16, n-hexadecylphosphocholine], the ligand binding activity (NTR1 [2]) was “substantially preserved” and the “receptor aggregation and oligomerisation” value (NTR1 [3]) was “less receptor aggregation and oligomerisation”.
`CNc1nc(I)nc2c1ncn2[C@H]1C[C@H](OP(=O)(O)O)[C@]2(COP(=O)(O)O)C[C@H]12` [MRS2500, (1′R2′S,4′S,5′S)-4-(2-iodo-6-methylamino-purine-9-yl)-1-[(phosphato)methyl] 2(phosphato)bicycle[3.1.0]-hexane] was tested, and the “ADP binding in the presence of the drug” value ([1]; P2Y1R purified in the presence of MRS2500) was “No ADP binding was detected” and the “percentage of interaction with P2Y1R” value ([1]; P2Y1R purified in the presence of MRS2500 (FIG. 2B)) was 100 percentage.
PIP2 was tested, and the “PIP2 binding of NTR1” value (NTR1 [4]) was “Multiple binding”.
